Tested on: K98450-129-R-PDC multicell spheroids, viability
Experiment: Anticancer human tumor K98450-129-R-PDC patient-derived colon adenocarcinoma cell line growth inhibition [PI3K]
Conditions: for IC50: curve of first compound; for viability, T/C: stronger effect = lower value
Method in brief: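 Complex 3D spheroids (cancer cells + endothelial HUVEC + mesenchymal stem cells); drug pairs of targeted agent x inavolisib/alpelisib/duvelisib/copanlisib; half-log series from ~Cmax, max 10 microM if Cmax unknown; endpoint viability.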

[1] = second compound 0.0316 µM, first compound 0.0316 µM
[2] = second compound 0.0316 µM, first compound 0.1 µM
[3] = second compound 0.1 µM, first compound 0.0316 µM
[4] = second compound 0.1 µM, first compound 0.1 µM
[5] = second compound 0.316 µM, first compound 0.0316 µM
[6] = second compound 0.316 µM, first compound 0.1 µM
[7] = second compound 1 µM, first compound 0.0316 µM
[8] = second compound 1 µM, first compound 0.1 µM
[9] = second compound 3.16 µM, first compound 0.0316 µM
[10] = second compound 3.16 µM, first compound 0.1 µM
[11] = second compound 10 µM, first compound 0.0316 µM
[12] = second compound 10 µM, first compound 0.1 µM
[13] = second compound 0.0316 µM, first compound 0.316 µM
[14] = second compound 0.0316 µM, first compound 1 µM
[15] = second compound 0.0316 µM, first compound 3.16 µM
[16] = second compound 0.0316 µM, first compound 10 µM
[17] = second compound 0.1 µM, first compound 0.316 µM
[18] = second compound 0.1 µM, first compound 1 µM
[19] = second compound 0.1 µM, first compound 3.16 µM
[20] = second compound 0.1 µM, first compound 10 µM
[21] = second compound 0.316 µM, first compound 0.316 µM
[22] = second compound 0.316 µM, first compound 1 µM
[23] = second compound 0.316 µM, first compound 3.16 µM
[24] = second compound 0.316 µM, first compound 10 µM
[25] = second compound 1 µM, first compound 0.316 µM
[26] = second compound 1 µM, first compound 1 µM
[27] = second compound 1 µM, first compound 3.16 µM
[28] = second compound 1 µM, first compound 10 µM
[29] = second compound 3.16 µM, first compound 0.316 µM
[30] = second compound 3.16 µM, first compound 1 µM
[31] = second compound 3.16 µM, first compound 3.16 µM
[32] = second compound 3.16 µM, first compound 10 µM
[33] = second compound 10 µM, first compound 0.316 µM
[34] = second compound 10 µM, first compound 1 µM
[35] = second compound 10 µM, first compound 3.16 µM
[36] = second compound 10 µM, first compound 10 µM
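Further: spheroids exposed to agents for seven days before read-out.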

## CC(=O)c1c(C)c2cnc(Nc3ccc(N4CCNCC4)cn3)nc2n(C2CCCC2)c1=O + CC(Nc1ncnc2nc[nH]c12)c1cc2cccc(Cl)c2c(=O)n1-c1ccccc1
Second compound 0.0316 µM
  IC50: > 0.1 µM
Second compound 0.1 µM
  IC50: > 0.1 µM
Second compound 0.316 µM
  IC50: > 0.1 µM
Second compound 1 µM
  IC50: > 0.1 µM
Second compound 3.16 µM
  IC50: > 0.1 µM
Second compound 10 µM
  IC50: > 0.1 µM
Second compound 0.0316 µM, first compound 0.000316 µM
  viability, T/C: 105%
Second compound 0.0316 µM, first compound 0.001 µM
  viability, T/C: 100%
Second compound 0.0316 µM, first compound 0.00316 µM
  viability, T/C: 110%
Second compound 0.0316 µM, first compound 0.01 µM
  viability, T/C: 99%
[1]
  viability, T/C: 100%
[2]
  viability, T/C: 86.2%
Second compound 0.1 µM, first compound 0.000316 µM
  viability, T/C: 109%
Second compound 0.1 µM, first compound 0.001 µM
  viability, T/C: 94.8%
Second compound 0.1 µM, first compound 0.00316 µM
  viability, T/C: 94.2%
Second compound 0.1 µM, first compound 0.01 µM
  viability, T/C: 96.1%
[3]
  viability, T/C: 93.1%
[4]
  viability, T/C: 99.3%
Second compound 0.316 µM, first compound 0.000316 µM
  viability, T/C: 107%
Second compound 0.316 µM, first compound 0.001 µM
  viability, T/C: 106%
Second compound 0.316 µM, first compound 0.00316 µM
  viability, T/C: 93.7%
Second compound 0.316 µM, first compound 0.01 µM
  viability, T/C: 94.8%
[5]
  viability, T/C: 101%
[6]
  viability, T/C: 81.6%
Second compound 1 µM, first compound 0.000316 µM
  viability, T/C: 102%
Second compound 1 µM, first compound 0.001 µM
  viability, T/C: 92.3%
Second compound 1 µM, first compound 0.00316 µM
  viability, T/C: 90.2%
Second compound 1 µM, first compound 0.01 µM
  viability, T/C: 101%
[7]
  viability, T/C: 101%
[8]
  viability, T/C: 85.8%
Second compound 3.16 µM, first compound 0.000316 µM
  viability, T/C: 105%
Second compound 3.16 µM, first compound 0.001 µM
  viability, T/C: 97.2%
Second compound 3.16 µM, first compound 0.00316 µM
  viability, T/C: 87.6%
Second compound 3.16 µM, first compound 0.01 µM
  viability, T/C: 94.5%
[9]
  viability, T/C: 96.9%
[10]
  viability, T/C: 89.9%
Second compound 10 µM, first compound 0.000316 µM
  viability, T/C: 92.4%
Second compound 10 µM, first compound 0.001 µM
  viability, T/C: 96.7%
Second compound 10 µM, first compound 0.00316 µM
  viability, T/C: 74.5%
Second compound 10 µM, first compound 0.01 µM
  viability, T/C: 82.2%
[11]
  viability, T/C: 103%
[12]
  viability, T/C: 72.2%

## CCCS(=O)(=O)Nc1ccc(F)c(C(=O)c2c[nH]c3ncc(-c4ccc(Cl)cc4)cc23)c1F + CC(Nc1ncnc2nc[nH]c12)c1cc2cccc(Cl)c2c(=O)n1-c1ccccc1
Second compound 0.0316 µM
  IC50: 5.17 µM
Second compound 0.1 µM
  IC50: 6.03 µM
Second compound 0.316 µM
  IC50: 5.29 µM
Second compound 1 µM
  IC50: 5.51 µM
Second compound 3.16 µM
  IC50: 5.87 µM
Second compound 10 µM
  IC50: 5.53 µM
[1]
  viability, T/C: 118%
[2]
  viability, T/C: 97.9%
[13]
  viability, T/C: 106%
[14]
  viability, T/C: 113%
[15]
  viability, T/C: 85.5%
[16]
  viability, T/C: 2.37%
[3]
  viability, T/C: 127%
[4]
  viability, T/C: 94.6%
[17]
  viability, T/C: 121%
[18]
  viability, T/C: 112%
[19]
  viability, T/C: 109%
[20]
  viability, T/C: 3.82%
[5]
  viability, T/C: 96.8%
[6]
  viability, T/C: 97.2%
[21]
  viability, T/C: 101%
[22]
  viability, T/C: 111%
[23]
  viability, T/C: 89%
[24]
  viability, T/C: 1.77%
[7]
  viability, T/C: 97%
[8]
  viability, T/C: 104%
[25]
  viability, T/C: 101%
[26]
  viability, T/C: 120%
[27]
  viability, T/C: 93.7%
[28]
  viability, T/C: 2.88%
[9]
  viability, T/C: 97.1%
[10]
  viability, T/C: 102%
[29]
  viability, T/C: 95.3%
[30]
  viability, T/C: 112%
[31]
  viability, T/C: 114%
[32]
  viability, T/C: 3.24%
[11]
  viability, T/C: 96.2%
[12]
  viability, T/C: 102%
[33]
  viability, T/C: 105%
[34]
  viability, T/C: 102%
[35]
  viability, T/C: 94.2%
[36]
  viability, T/C: 3.07%

## CNC(=O)c1ccc(N2C(=S)N(c3ccc(C#N)c(C(F)(F)F)c3)C(=O)C2(C)C)cc1F + CC(Nc1ncnc2nc[nH]c12)c1cc2cccc(Cl)c2c(=O)n1-c1ccccc1
Second compound 0.0316 µM
  IC50: > 10 µM
Second compound 0.1 µM
  IC50: > 10 µM
Second compound 0.316 µM
  IC50: > 10 µM
Second compound 1 µM
  IC50: > 10 µM
Second compound 3.16 µM
  IC50: > 10 µM
Second compound 10 µM
  IC50: > 10 µM
[1]
  viability, T/C: 109%
[2]
  viability, T/C: 100%
[13]
  viability, T/C: 104%
[14]
  viability, T/C: 83.1%
[15]
  viability, T/C: 104%
[16]
  viability, T/C: 88.9%
[3]
  viability, T/C: 116%
[4]
  viability, T/C: 94%
[17]
  viability, T/C: 106%
[18]
  viability, T/C: 108%
[19]
  viability, T/C: 88.8%
[20]
  viability, T/C: 101%
[5]
  viability, T/C: 104%
[6]
  viability, T/C: 99.3%
[21]
  viability, T/C: 97.2%
[22]
  viability, T/C: 92.3%
[23]
  viability, T/C: 112%
[24]
  viability, T/C: 109%
[7]
  viability, T/C: 92.8%
[8]
  viability, T/C: 90.7%
[25]
  viability, T/C: 95.5%
[26]
  viability, T/C: 102%
[27]
  viability, T/C: 99.8%
[28]
  viability, T/C: 97.1%
[9]
  viability, T/C: 83.1%
[10]
  viability, T/C: 95.4%
[29]
  viability, T/C: 82%
[30]
  viability, T/C: 83.1%
[31]
  viability, T/C: 87.6%
[32]
  viability, T/C: 96.6%
[11]
  viability, T/C: 76.8%
[12]
  viability, T/C: 93.4%
[33]
  viability, T/C: 83%
[34]
  viability, T/C: 96.1%
[35]
  viability, T/C: 109%
[36]
  viability, T/C: 88%
